Experimental data from patent US20250134906A1 (Woolsey Pharmaceuticals, Inc., priority 2022, published 2025).
Structures can show the parent of a compound that is named as a salt.

Columns and labels:
[1] = Stability of aqueous fasudil in 0.05M citrate buffer with or without EDTA, 60° C. for 36 days; type: physicochemical
Description: Samples were stored at 60° C. for 36 days.

[2] = Solubility and stability of unbuffered aqueous fasudil solutions stored at 60° C. for 42 days; type: physicochemical; conditions: 16-20 mg/ml
Description: Samples were stored at 60° C. for 42 days.

changes in pH or fasudil concentration [1]: compatible with EDTA in citrate buffer
changes in fasudil concentration or pH [2]: stable in the range of pH 4 to pH 6
Compound: O=S(=O)(c1cccc2cnccc12)N1CCCNCC1 [Fasudil, hexahydro-1-(5-isoquinolinesulfonyl)-1H-1,4-diazepine monohydrochloride hemihydrate]
